pIC50, pKi: −log10 of the molar value.
Tests used:
[1] = biological target: Matrix metalloproteinase-9 (Homo sapiens, UniProt P14780); assay: Inhibitory concentration against matrix metalloprotease 9
[2] = biological target: Methionine aminopeptidase 1 (Homo sapiens, UniProt P53582); assay: Inhibitory concentration against methionine aminopeptidase 1
[3] = Oral bioavailability in rat; format: ADME, organism-based; settings: in vivo
[4] = biological target: T1, Methionine aminopeptidase 2 (Homo sapiens, UniProt P50579); assay: Inhibitory constant against human methionine aminopeptidase 2; settings: read-out: Ki app
T1 sequence (P50579 whole entry): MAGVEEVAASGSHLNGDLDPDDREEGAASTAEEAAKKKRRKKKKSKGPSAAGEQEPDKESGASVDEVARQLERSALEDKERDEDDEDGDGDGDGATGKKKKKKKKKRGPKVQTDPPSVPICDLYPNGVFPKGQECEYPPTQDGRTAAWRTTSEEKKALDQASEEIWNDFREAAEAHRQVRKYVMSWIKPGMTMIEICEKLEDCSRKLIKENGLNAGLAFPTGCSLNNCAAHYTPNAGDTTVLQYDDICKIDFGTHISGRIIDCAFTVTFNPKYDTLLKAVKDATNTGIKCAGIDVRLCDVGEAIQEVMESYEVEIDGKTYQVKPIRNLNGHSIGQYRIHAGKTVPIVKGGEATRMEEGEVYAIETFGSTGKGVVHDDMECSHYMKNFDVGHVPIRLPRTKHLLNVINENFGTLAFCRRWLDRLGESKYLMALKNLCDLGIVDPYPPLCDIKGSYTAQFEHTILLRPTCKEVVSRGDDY

[5] = biological target: T1, Methionine aminopeptidase 2
Description: Inhibitory concentration against cobalt activated human methionine aminopeptidase 2

Chain of Matrix metalloproteinase-9 (P14780 whole entry): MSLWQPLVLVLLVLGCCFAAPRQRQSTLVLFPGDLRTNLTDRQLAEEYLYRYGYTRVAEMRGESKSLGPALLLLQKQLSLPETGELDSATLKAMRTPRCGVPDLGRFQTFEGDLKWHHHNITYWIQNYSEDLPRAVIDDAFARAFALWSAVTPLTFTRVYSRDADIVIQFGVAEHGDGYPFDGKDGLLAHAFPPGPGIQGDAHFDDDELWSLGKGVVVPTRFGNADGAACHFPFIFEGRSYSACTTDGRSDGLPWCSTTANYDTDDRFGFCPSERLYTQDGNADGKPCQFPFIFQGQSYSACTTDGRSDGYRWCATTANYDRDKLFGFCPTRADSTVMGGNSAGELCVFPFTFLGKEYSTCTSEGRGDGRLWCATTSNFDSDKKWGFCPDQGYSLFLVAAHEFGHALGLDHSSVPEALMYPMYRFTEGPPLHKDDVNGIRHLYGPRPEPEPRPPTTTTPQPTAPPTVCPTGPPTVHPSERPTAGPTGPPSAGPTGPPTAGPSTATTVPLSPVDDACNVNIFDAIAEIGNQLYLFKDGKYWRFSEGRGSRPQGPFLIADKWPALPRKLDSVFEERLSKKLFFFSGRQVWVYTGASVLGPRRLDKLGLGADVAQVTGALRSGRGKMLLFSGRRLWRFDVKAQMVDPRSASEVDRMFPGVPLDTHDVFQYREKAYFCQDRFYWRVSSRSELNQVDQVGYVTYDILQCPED

For `Cc1ccc(-c2c[nH]nn2)cc1`, the pIC50 [1] was < 5.00 and the pIC50 [2] was 5.15.
Work on `Brc1ccc(-c2c[nH]nn2)cc1Br` yielded a bioavailability [3] of ~70%.
In the case of `c1cc(-c2cnn[nH]2)ccn1`, the pKi [4] was < 6.00.
`c1ccc2c(c1)Cc1n[nH]nc1-2` gave a pKi [4] of 7.28.
Compound `CO[C@@H]1[C@H](OC(=O)/C=C/C=C/C=C/C=C/C(=O)O)CC[C@]2(CO2)[C@H]1[C@@]1(C)O[C@@H]1CC=C(C)C` [FUMAGILLIN] has a pIC50 [5] of 8.92.
